Measured values from patent US10227357B2, “Compounds and methods for kinase modulation, and indications therefor” (Plexxikon Inc., priority 2012, dated 2019).
Read-outs that look alike come from different tables or passages of the source.

Assays:
[1] = target: T1, c-kit mutant D816V (Homo sapiens, UniProt P10721, D816V/DEL694-753); assay: c-Kit mutant D816V biochemical assay, AlphaScreen
T1 construct: residues 551-934, kinase insertion domain residues 694-753 deleted; 6x-histidine (N); made in house; host or cells: E. coli Arctic Express (DE3) RIL (Stratagene)
T1 sequence (P10721 with tags, fused parts or gaps DEL694-753/D816V): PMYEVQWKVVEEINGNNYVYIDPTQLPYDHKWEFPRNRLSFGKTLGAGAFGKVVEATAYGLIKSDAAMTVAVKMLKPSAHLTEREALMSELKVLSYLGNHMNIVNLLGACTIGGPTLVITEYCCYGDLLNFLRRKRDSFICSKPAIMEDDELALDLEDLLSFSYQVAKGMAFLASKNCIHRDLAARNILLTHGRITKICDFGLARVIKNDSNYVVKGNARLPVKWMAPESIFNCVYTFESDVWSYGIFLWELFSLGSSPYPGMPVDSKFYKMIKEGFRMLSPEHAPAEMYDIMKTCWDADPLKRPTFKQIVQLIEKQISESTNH
Method in brief: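 Purified His-tagged c-Kit D816V (E. coli-expressed) assayed in 25 mM HEPES pH 7.2 with Mg/Mn, 5% DMSO and 10 μM ATP, 30 min at room temperature, 8-point 1:3 dilutions. Phosphorylation detected by AlphaScreen with streptavidin donor and PY20 acceptor beads; IC50 from signal versus concentration.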

[2] = target: T2, c-kit kinase (Homo sapiens, UniProt P10721); assay: c-Kit biochemical assay, AlphaScreen, 10 μM ATP
T2 construct: The c-kit (or kinase domain thereof) is an active kinase in AlphaScreen; poly-Histidine tag (in-house protein only) (cleaved yes); host or cells: E. coli BL21(DE3)RIL, co-expressed with PTP1B
T2 sequence (P10721 26-976): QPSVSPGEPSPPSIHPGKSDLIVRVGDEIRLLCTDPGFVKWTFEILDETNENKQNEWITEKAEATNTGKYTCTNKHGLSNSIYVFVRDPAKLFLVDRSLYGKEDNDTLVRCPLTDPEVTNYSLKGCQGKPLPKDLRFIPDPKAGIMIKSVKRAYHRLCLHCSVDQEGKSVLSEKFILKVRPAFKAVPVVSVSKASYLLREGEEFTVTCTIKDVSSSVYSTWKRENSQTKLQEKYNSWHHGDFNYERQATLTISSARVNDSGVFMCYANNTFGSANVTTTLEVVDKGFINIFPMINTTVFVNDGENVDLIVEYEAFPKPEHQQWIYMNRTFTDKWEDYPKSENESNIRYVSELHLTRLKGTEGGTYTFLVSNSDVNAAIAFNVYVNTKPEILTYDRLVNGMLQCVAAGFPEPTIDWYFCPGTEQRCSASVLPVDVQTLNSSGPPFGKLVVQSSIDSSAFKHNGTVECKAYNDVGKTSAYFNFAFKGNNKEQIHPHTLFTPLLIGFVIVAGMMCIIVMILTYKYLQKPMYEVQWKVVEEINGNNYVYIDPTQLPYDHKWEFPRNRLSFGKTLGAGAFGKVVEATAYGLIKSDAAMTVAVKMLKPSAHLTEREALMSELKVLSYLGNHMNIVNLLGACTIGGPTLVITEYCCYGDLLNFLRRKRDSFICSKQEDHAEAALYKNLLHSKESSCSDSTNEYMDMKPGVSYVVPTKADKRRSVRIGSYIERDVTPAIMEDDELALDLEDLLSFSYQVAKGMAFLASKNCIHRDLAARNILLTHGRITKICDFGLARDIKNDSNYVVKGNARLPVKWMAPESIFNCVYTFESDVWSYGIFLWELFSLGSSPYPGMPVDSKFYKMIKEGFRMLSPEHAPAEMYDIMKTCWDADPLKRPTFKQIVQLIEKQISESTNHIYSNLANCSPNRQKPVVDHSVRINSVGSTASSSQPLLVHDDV
Method in brief: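 His-tagged c-Kit expressed in E. coli with co-expressed PTP1B (dephosphorylated), tag removed; 0.1 ng per reaction with biotinylated-peptide substrate in 50 mM HEPES pH 7.2, 5 mM MgCl2, 5 mM MnCl2, 5% DMSO, 10 μM ATP, 1 h at room temperature. Phosphorylation detected by AlphaScreen (streptavidin donor, PY20 acceptor beads); IC50 from 8-point 1:3 dilution series.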

[3] = c-kit D816V biochemical inhibitory activity, read-out: Biochemical activity (IC50 μM) Kit D816V
[4] = c-kit biochemical inhibitory activity, read-out: Biochemical activity (IC50 μM) Kit

**Q.** For `Cn1cc(-c2cc3c(C4=CCC(NS(=O)(=O)c5ccc(OC(F)(F)F)cc5)CC4)ncnc3[nH]2)cn1` (stereo not shown) [P-0285, N-[4-[6-(1-methylpyrazol-4-yl)-7H-pyrrolo[2,3-d]pyrimidin-4-yl]cyclohex-3-en-1-yl]-4-(trifluoromethoxy)benzenesulfonamide], which IC50 [1, 3] is on record?
**A.** The IC50 was 0.0001 to 1 µM.

**Q.** What about the IC50 [2, 4] of the same molecule?
**A.** The IC50 was 1 to 10 µM.

**Q.** With `Cc1ccc(S(=O)(=O)Nc2ccc(-c3ncnc4[nH]c(C)cc34)c(F)c2)cn1` [P-0286, N-[3-fluoro-4-(6-methyl-7H-pyrrolo[2,3-d]pyrimidin-4-yl)phenyl]-6-methyl-pyridine-3-sulfonamide] as the molecule, how does the IC50 [1, 3] read?
**A.** Its IC50 is 0.0001 to 1 µM.

**Q.** What about the IC50 [2, 4] of the same molecule?
**A.** The IC50 was 1 to 10 µM.

**Q.** `CCCCc1ccc(S(=O)(=O)Nc2ccc(-c3ncnc4[nH]c(C)cc34)cc2)cc1` [P-0287, 4-butyl-N-[4-(6-methyl-7H-pyrrolo[2,3-d]pyrimidin-4-yl)phenyl]benzenesulfonamide] was tested. Which IC50 [1, 3] did it give?
**A.** The IC50 was 1 to 10 µM.

**Q.** What about the IC50 [2, 4] of the same molecule?
**A.** The IC50 was 10 to 200 µM.

**Q.** For `CCCCS(=O)(=O)Nc1ccc(-c2ncnc3[nH]c(C)cc23)cc1` [P-0288, N-[4-(6-methyl-7H-pyrrolo[2,3-d]pyrimidin-4-yl)phenyl]butane-1-sulfonamide], which IC50 ([1]; Biochemical activity (IC50 μM) Kit D816V) is on record?
**A.** The IC50 was 1 to 10 µM.

**Q.** And the IC50 [2]?
**A.** The IC50 was 10 to 200 µM.

**Q.** Which results are given for `CCCS(=O)(=O)Nc1ccc(-c2ncnc3[nH]c(C)cc23)cc1` [P-0289, N-[4-(6-methyl-7H-pyrrolo[2,3-d]pyrimidin-4-yl)phenyl]propane-1-sulfonamide]?
**A.** IC50 [1, 3]: 0.0001 to 1 µM; IC50 [2, 4]: 10 to 200 µM

**Q.** With `O=S(=O)(Nc1ccc(-c2ncnc3[nH]c(C4CCCC4)cc23)cc1)c1ccc(F)cc1` [P-0290, N-[4-(6-cyclopentyl-7H-pyrrolo[2,3-d]pyrimidin-4-yl)phenyl]-4-fluoro-benzenesulfonamide] as the molecule, how does the IC50 [1, 3] read?
**A.** The IC50 was 0.0001 to 1 µM.

**Q.** And the IC50 [2, 4]?
**A.** Its IC50 is 1 to 10 µM.

**Q.** How did the IC50 [1, 3] turn out when `Cc1cc2c(-c3ccc(NS(=O)(=O)c4ccc(C)s4)cc3F)ncnc2[nH]1` [P-0291, N-[3-fluoro-4-(6-methyl-7H-pyrrolo[2,3-d]pyrimidin-4-yl)phenyl]-5-methyl-thiophene-2-sulfonamide] was run?
**A.** Its IC50 is 0.0001 to 1 µM.

**Q.** What about the IC50 [2, 4] of the same molecule?
**A.** Its IC50 is 1 to 10 µM.

**Q.** Which IC50 [1, 3] does the source give for `CCc1ccc(S(=O)(=O)Nc2ccc(-c3ncnc4[nH]c(C)cc34)c(F)c2)cc1` [P-0292, 4-ethyl-N-[3-fluoro-4-(6-methyl-7H-pyrrolo[2,3-d]pyrimidin-4-yl)phenyl]benzenesulfonamide] here?
**A.** Its IC50 is 0.0001 to 1 µM.

**Q.** And the IC50 [2, 4]?
**A.** The IC50 was 1 to 10 µM.

**Q.** Which IC50 [1, 3] does the source give for `Cc1ccc(S(=O)(=O)Nc2ccc(-c3ncnc4[nH]c(C)cc34)c(F)c2)cc1` [P-0293, N-[3-fluoro-4-(6-methyl-7H-pyrrolo[2,3-d]pyrimidin-4-yl)phenyl]-4-methyl-benzenesulfonamide] here?
**A.** Its IC50 is 0.0001 to 1 µM.

**Q.** And the IC50 [2, 4]?
**A.** Its IC50 is 1 to 10 µM.

**Q.** Which IC50 [1, 3] does the source give for `Cc1cc2c(-c3ccc(NS(=O)(=O)c4ccc5c(c4)OCO5)cc3)ncnc2[nH]1` [P-0294, N-[4-(6-methyl-7H-pyrrolo[2,3-d]pyrimidin-4-yl)phenyl]-1,3-benzodioxole-5-sulfonamide] here?
**A.** The IC50 was 0.0001 to 1 µM.

**Q.** What about the IC50 [2, 4] of the same molecule?
**A.** The IC50 was 10 to 200 µM.

**Q.** How did the IC50 [1, 3] turn out when `CC1(C)C=C(c2cc3c(-c4ccc(NS(=O)(=O)c5ccc(F)cc5)cc4)ncnc3[nH]2)CC(C)(C)N1` [P-0295, 4-fluoro-N-[4-[6-(2,2,6,6-tetramethyl-1,3-dihydropyridin-4-yl)-7H-pyrrolo[2,3-d]pyrimidin-4-yl]phenyl]benzenesulfonamide] was run?
**A.** Its IC50 is 0.0001 to 1 µM.

**Q.** What about the IC50 [2, 4] of the same molecule?
**A.** Its IC50 is 1 to 10 µM.

**Q.** For `O=S(=O)(Nc1ccc(-c2ncnc3[nH]c(C4=CCCC4)cc23)cc1)c1ccc(F)cc1` [P-0296, N-[4-[6-(cyclopenten-1-yl)-7H-pyrrolo[2,3-d]pyrimidin-4-yl]phenyl]-4-fluoro-benzenesulfonamide], which IC50 [1, 3] is on record?
**A.** The IC50 was 0.0001 to 1 µM.

**Q.** What about the IC50 [2, 4] of the same molecule?
**A.** The IC50 was 1 to 10 µM.

**Q.** Which results are given for `Cc1cc2c(-c3ccc(NS(=O)(=O)c4ccc(C(F)(F)F)nc4)cc3)ncnc2[nH]1` [P-0297, N-[4-(6-methyl-7H-pyrrolo[2,3-d]pyrimidin-4-yl)phenyl]-6-(trifluoromethyl)pyridine-3-sulfonamide]?
**A.** IC50 [1, 3]: 1 to 10 µM; IC50 [2, 4]: 10 to 200 µM

**Q.** Which IC50 [1, 3] does the source give for `CC1(C)C=C(c2cc3c(-c4ccc(NS(=O)(=O)c5ccc(F)cc5)cc4)ncnc3[nH]2)CC(C)(C)O1` [P-0298, 4-fluoro-N-[4-[6-(2,2,6,6-tetramethyl-3H-pyran-4-yl)-7H-pyrrolo[2,3-d]pyrimidin-4-yl]phenyl]benzenesulfonamide] here?
**A.** Its IC50 is 1 to 10 µM.

**Q.** What about the IC50 [2, 4] of the same molecule?
**A.** The IC50 was 10 to 200 µM.
